Assay [1] deals with TSLP-mediated phosphorylation of STAT5 in HMC-1 human mast cell line. The experiment in a line: Cell-based efficacy evaluation using FACS: intracellular phosphorylation of STAT5 after TSLP treatment of HMC-1 cells. The settings on record: for Degrees of intracellular phosphorylation of STAT5 molecules (%): HMC-1 cells, TSLP 100 ng/mL, 30 min, control treated with TSLP alone = 100%. As to the method: The binding of TSLP to TSLP receptor activates various signaling pathways, mainly the JAK/STAT pathway. TSLP-mediated signaling is well known to specifically phosphorylate STAT5 among STAT molecules.
In this example, this fact was confirmed through the following experiment.
First, HMC-1, a human mast cell line, was cultured until an appropriate number of cells were maintained in a 96-well plate. […] Cells were fixed with Cytofix. Subsequently, cells were permeabilized with a permeabilization buffer and stained with anti-pSTAT5 antibody at 4° C. for 30 min. Cells were washed three times with the same buffer and analyzed by flow cytometry. […] The intracellular phosphorylation of STAT5 molecules in the control was 100%.

Assay [2] has as its target binding of TSLP to TSLPR (Homo sapiens, UniProt Q969D9). As to the kind of experiment: ELISA-based TSLP-TSLPR interaction assay (FLAG-TSLP, TSLPR-His, HRP). The settings on record: for inhibitory effects on the binding of TSLP to TSLP receptor (in words): treated alone. In general terms: ELISA stands for enzyme-linked immunosorbent assay.
Where [3] appears, read: read-out: TSLP-TSLPR inhibitions (%).

Where two headings read alike, the source gives them in different places.

binding of TSLP to TSLPR, sequence (Q969D9 29-159): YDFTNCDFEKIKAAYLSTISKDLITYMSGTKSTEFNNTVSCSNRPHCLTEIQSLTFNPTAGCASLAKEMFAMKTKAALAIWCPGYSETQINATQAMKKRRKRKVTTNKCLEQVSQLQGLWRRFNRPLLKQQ

For `O=c1cc(-c2ccccc2)oc2cc(O)c(O)c(O)c12` [Formula 1, baicalein], the “Degrees of intracellular phosphorylation of STAT5 molecules (%)” value is 65.7% in assay [1] (3 μM) and 61.6% in assay [1] (10 μM). Also, the “effect on phosphorylation of STAT5 molecules (in words)” value in assay [1] (summary of Table 1) is reported as “inhibit the phosphorylation of STAT5 molecules”. For the same compound, the inhibition at 100 µM in assay [2] (read-out: TSLP-TSLPR inhibitions (%), 0.1 mM, Table 5) is 3.2 ± 1.3%. The inhibition at 300 µM in assay [2] (read-out: TSLP-TSLPR inhibitions (%), 0.3 mM, Table 2) worked out at 45.8 ± 0.7%; in assay [2] (read-out: TSLP-TSLPR inhibitions (%), 0.3 mM, Table 6) it was 16.5 ± 1.6%.
With `Oc1ccc(-c2[o+]c3cc(O)cc(O)c3cc2O)cc1` [Formula 2, pelargonidin chloride], in assay [2] (setting [3]), the inhibition at 150 µM was determined as 6.3 ± 0.1% and the inhibition at 300 µM is 13.1 ± 5.8%.
Turning to `O=c1c(O)c(-c2ccc(O)cc2)oc2cc(O)cc(O)c12` [Formula 3, kaempferol], in assay [2] (setting [3]), the inhibition at 150 µM was determined as 0.6 ± 3.7%.
The same measure, in the same setting: under `O=C1/C(=C2\Nc3ccccc3C2=O)Nc2ccccc21` [Formula 4, indigo dye] stands 3.5 ± 2.7%.
As to `CN(C)CCn1c(=O)c2nc(-c3ccccc3)oc2c2ccccc21` [Formula 5, 5-(2-(dimethylamino)ethyl)-2-phenyloxazolo[4,5-c]quinolin-4(5H)-one], in assay [2] (setting [3]), the inhibition at 100 µM amounted to 6.5 ± 8.6%, the inhibition at 150 µM was 10.2 ± 17% and the inhibition at 300 µM came to 21.6 ± 3.4%. For the same compound, the “inhibitory effects on the binding of TSLP to TSLP receptor (in words)” value in assay [2] is given as “insignificant inhibitory effects”.
For `CN(C)CCOc1nc2ccccc2c2oc(-c3ccccc3)nc12` [Formula 6, N,N-dimethyl-2-((2-phenyloxazolo[4,5-c]quinolin4-yl)oxy)ethanamine], in assay [2] (setting [3]), the inhibition at 150 µM was determined as 5.4 ± 0.7% and the inhibition at 300 µM came to 19.3 ± 3%. Also, the “inhibitory effects on the binding of TSLP to TSLP receptor (in words)” value in assay [2] is listed as “insignificant inhibitory effects”.

(Values after patent US11166934B2 (Azcuris Co., Ltd., priority 2017, dated 2021).)
